Test results from patent publication US11608335B2, “Somatostatin modulators and uses thereof” (CRINETICS PHARMACEUTICALS, INC., priority 2018, dated 2023).
Read-outs that look alike come from different tables or passages of the source.

Tests used:
[1] = target: human somatostatin receptor subtype 5 (Homo sapiens, UniProt P35346); assay: cAMP assay for SST5R (inhibition of cAMP via human SST5 receptor)
[2] = target: T1, human somatostatin receptor subtype 2 (Homo sapiens, UniProt P30874); assay: cAMP assay for SST2R (inhibition of cAMP via human SST2 receptor); type: cell-based; conditions: Table B, read-out: SST2 potency
T1 construct: expressed in transfected cells
Description: cAMP Assay Protocol for SST2R:

[3] = read-out: SST5 potency, inhibition of cAMP via human SST5 receptor, Table B

Sequence of human somatostatin receptor subtype 5 (P35346 whole entry): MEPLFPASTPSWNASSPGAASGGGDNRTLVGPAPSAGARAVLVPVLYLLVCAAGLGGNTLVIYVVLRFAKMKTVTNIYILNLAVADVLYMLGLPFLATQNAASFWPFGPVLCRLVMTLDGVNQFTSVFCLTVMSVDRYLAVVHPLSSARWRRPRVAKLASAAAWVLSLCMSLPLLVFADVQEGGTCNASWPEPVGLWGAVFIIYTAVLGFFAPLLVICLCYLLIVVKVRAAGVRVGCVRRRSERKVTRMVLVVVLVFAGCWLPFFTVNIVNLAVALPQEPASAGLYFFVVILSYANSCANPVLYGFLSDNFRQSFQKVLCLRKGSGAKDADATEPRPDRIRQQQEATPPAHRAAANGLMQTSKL
T1 sequence (P30874 whole entry): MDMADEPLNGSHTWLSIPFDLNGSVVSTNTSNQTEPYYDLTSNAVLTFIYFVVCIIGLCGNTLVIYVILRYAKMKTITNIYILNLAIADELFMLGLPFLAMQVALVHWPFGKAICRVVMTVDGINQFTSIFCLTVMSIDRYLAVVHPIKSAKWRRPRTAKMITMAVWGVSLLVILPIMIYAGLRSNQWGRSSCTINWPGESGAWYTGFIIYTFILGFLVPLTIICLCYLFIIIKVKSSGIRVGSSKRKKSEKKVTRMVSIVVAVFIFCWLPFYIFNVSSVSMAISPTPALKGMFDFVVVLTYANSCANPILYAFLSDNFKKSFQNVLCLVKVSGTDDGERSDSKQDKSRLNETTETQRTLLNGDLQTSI

Structure (SMILES)	EC50 [1] [nM]	Fold selectivity for SST5 vs SST2 ([1]; SST5 over SST2, class symbols)	EC50 [1, 3] [nM]	EC50 [2] [nM]	Fold selectivity for SST5 vs SST2 ([1]; SST5 over SST2, given as number (comparison compounds))
CC1(N)CCN(c2c(-c3cccc(C(N)=O)c3)cncc2-c2nc3c(F)cccc3[nH]2)C1 (stereo not drawn) [Compound 2-18, 3-[4-(3-amino-3-methylpyrrolidin-1-yl)-5-(4-fluoro-1H-1,3-benzodiazol-2-yl)pyridin-3-yl]benzamide]	< 10	+++ (+++=≥500)	< 10	> 1000	–
N#Cc1ccc(-c2cncc(-c3nc4cccc(F)c4[nH]3)c2N2CC[C@H](N)C2)s1 [Compound 2-26, 5-{4-[(3S)-3-aminopyrrolidin-1-yl]-5-(4-fluoro-1H-1,3-benzodiazol-2-yl)pyridin-3-yl}thiophene-2-carbonitrile]	< 10	++ (++=100 to 499)	< 10	100 to 1000	–
Cc1cccc2[nH]c(-c3cncc(-c4cc(F)c(F)c(C(N)=O)c4)c3N3CCC(C)(N)C3)nc12 (stereo not drawn) [Compound 2-127, 5-[4-(3-Amino-3-methylpyrrolidin-1-yl)-5-(4-methyl-1H-1,3-benzodiazol-2-yl)pyridin-3-yl]-2,3-difluorobenzamide]	< 10	++ (++=100 to 499)	< 10	100 to 1000	–
Cc1cccc2nc(-c3cncc(-c4ccc(F)c(C#N)c4)c3N3CC[C@H](N)C3)[nH]c12 [Compound 2-37, 5-{4-[(3S)-3-aminopyrrolidin-1-yl]-5-(4-methyl-1H-1,3-benzodiazol-2-yl)pyridin-3-yl}-2-fluorobenzonitrile]	< 10	+++ (+++=≥500)	< 10	100 to 1000	–
C[C@]1(N)CCN(c2c(-c3ccnc(C#N)c3)cncc2-c2nc3cccc(C(F)(F)F)c3[nH]2)C1 [Compound 2-175, 4-[(3S)-3-amino-3-methylpyrrolidin-1-yl]-5-[7-(trifluoromethyl)-1H-1,3-benzodiazol-2-yl]-[3,4′-bipyridine]-2′-carbonitrile]	< 10	+++ (+++=≥500)	< 10	100 to 1000	–
CC1(N)CCN(c2c(-c3cccc(S(C)(=O)=O)c3)cncc2-c2nc3cccc(F)c3[nH]2)C1 (stereo not drawn) [Compound 2-21, 1-[3-(4-fluoro-1H-1,3-benzodiazol-2-yl)-5-(3-methanesulfonylphenyl)pyridin-4-yl]-3-methylpyrrolidin-3-amine]	< 10	+++ (+++=≥500)	< 10	> 1000	–
Cc1cc(F)cc2[nH]c(-c3cncc(-c4ccnc(C#N)c4)c3N3CC[C@](C)(N)C3)nc12 [Compound 2-166, 4-[(3S)-3-amino-3-methylpyrrolidin-1-yl]-5-(6-fluoro-4-methyl-1H-1,3-benzodiazol-2-yl)-[3,4′-bipyridine]-2′-carbonitrile]	< 10	+++ (+++=≥500)	< 10	100 to 1000	–
CC1(N)CCN(c2c(-c3cc(F)cc(C(N)=O)c3)cncc2-c2nc3cccc(F)c3[nH]2)C1 (stereo not drawn) [Compound 2-20, 3-[4-(3-amino-3-methylpyrrolidin-1-yl)-5-(4-fluoro-1H-1,3-benzodiazol-2-yl)pyridin-3-yl]-5-fluorobenzamide]	< 10	+++ (+++=≥500)	< 10	100 to 1000	–
N#Cc1cc(F)cc(-c2cncc(-c3nc4c(F)ccc(F)c4[nH]3)c2N2CC[C@H](N)C2)c1 [Compound 2-38, 3-{4-[(3S)-3-aminopyrrolidin-1-yl]-5-(4,7-difluoro-1H-1,3-benzodiazol-2-yl)pyridin-3-yl}-5-fluorobenzonitrile]	< 10	+++ (+++=≥500)	< 10	100 to 1000	–
CC1(N)CCN(c2c(-c3cccc(OC(F)(F)F)c3)cncc2-c2nc3cccc(F)c3[nH]2)C1 (stereo not drawn) [Compound 2-10, 1-[3-(4-fluoro-1H-1,3-benzodiazol-2-yl)-5-[3-(trifluoromethoxy)phenyl]pyridin-4-yl]-3-methylpyrrolidin-3-amine]	< 10	+++ (+++=≥500)	< 10	100 to 1000	–
CC1(N)CCN(c2c(-c3cc(F)cc(Cl)c3)cncc2-c2nc3cccc(F)c3[nH]2)C1 (stereo not drawn) [Compound 2-4, 1-[3-(3-chloro-5-fluorophenyl)-5-(4-fluoro-1H-1,3-benzodiazol-2-yl)pyridin-4-yl]-3-methylpyrrolidin-3-amine]	< 10	++ (++=100 to 499)	< 10	10 to 100	–
CC1(N)CCN(c2c(-c3cccc(Cl)c3)cncc2-c2nc3cccc(F)c3[nH]2)C1 (stereo not drawn) [Compound 2-28, 1-[3-(3-chlorophenyl)-5-(4-fluoro-1H-1,3-benzodiazol-2-yl)pyridin-4-yl]-3-methylpyrrolidin-3-amine]	< 10	++ (++=100 to 499)	< 10	10 to 100	–
CC(N)C1(C)CN(c2c(-c3cccc(C#N)c3)cncc2-c2nc3cc(F)cc(F)c3[nH]2)C1 (stereo not drawn) [Compound 1-70, 3-{4-[3-(1-aminoethyl)-3-methylazetidin-1-yl]-5-(4,6-difluoro-1H-1,3-benzodiazol-2-yl)pyridin-3-yl}benzonitrile]	< 10	+++ (+++=≥500)	< 10	> 1000	–

The next lines start with the values.

EC50 [1] [nM]	Fold selectivity for SST5 vs SST2 ([1]; SST5 over SST2, class symbols)	EC50 [1, 3] [nM]	EC50 [2] [nM]	Fold selectivity for SST5 vs SST2 ([1]; SST5 over SST2, given as number (comparison compounds))	Structure (SMILES)
10 to 100	+ (+=10 to 99)	10 to 100	100 to 1000	–	Cc1cc(F)cc(-c2cncc(-c3nc4ccc(Cl)cc4[nH]3)c2N2CC[C@H](N)C2)c1 [Compound 2-196, (3S)-1-[3-(6-chloro-1H-1,3-benzodiazol-2-yl)-5-(3-fluoro-5-methylphenyl)pyridin-4-yl]pyrrolidin-3-amine]
< 10	+++ (+++=≥500)	< 10	100 to 1000	–	CC1(N)CCN(c2c(-c3ccc(F)c(C#N)c3)cncc2-c2nc3cccc(C#N)c3[nH]2)C1 (stereo not drawn) [Compound 2-147, 2-[4-(3-amino-3-methylpyrrolidin-1-yl)-5-(3-cyano-4-fluorophenyl)pyridin-3-yl]-1H-1,3-benzodiazole-4-carbonitrile]
< 10	+++ (+++=≥500)	< 10	> 1000	–	CC(N)C1(C)CN(c2c(-c3cccc(C(F)(F)F)c3)cncc2-c2nc3cc(F)cc(F)c3[nH]2)C1 (stereo not drawn) [Compound 1-69, 1-{1-[3-(4,6-difluoro-1H-1,3-benzodiazol-2-yl)-5-[3-(trifluoromethyl)phenyl]pyridin-4-yl]-3-methylazetidin-3-yl}ethan-1-amine]
< 10	+++ (+++=≥500)	< 10	100 to 1000	–	Cc1cccc2nc(-c3cncc(-c4ccnc(C#N)c4)c3N3CC[C@H](N)C3)[nH]c12 [Compound 2-128, 4-[(3S)-3-aminopyrrolidin-1-yl]-5-(4-methyl-1H-1,3-benzodiazol-2-yl)-[3,4′-bipyridine]-2′-carbonitrile]
< 10	+++ (+++=≥500)	< 10	> 1000	–	CCn1c(-c2cncc(-c3ccc(F)c(C#N)c3)c2N2CC[C@H](N)C2)nc2c(F)cccc21 [Compound 2-142, 5-{4-[(3S)-3-aminopyrrolidin-1-yl]-5-(1-ethyl-4-fluoro-1H-1,3-benzodiazol-2-yl)pyridin-3-yl}-2-fluorobenzonitrile]
< 10	++ (++=100 to 499)	< 10	10 to 100	–	Cc1ccnc2nc(-c3cncc(-c4cc(F)c(F)c(C#N)c4)c3N3CCC(C)(N)C3)[nH]c12 (stereo not drawn) [Compound 2-140, 5-[4-(3-amino-3-methylpyrrolidin-1-yl)-5-{7-methyl-1H-imidazo[4,5-b]pyridin-2-yl}pyridin-3-yl]-2,3-difluorobenzonitrile]
< 10	+++ (+++=≥500)	< 10	100 to 1000	–	Cc1ccc(F)c2nc(-c3cncc(-c4ccc(F)c(C(N)=O)c4)c3N3CCC(C)(N)C3)[nH]c12 (stereo not drawn) [Compound 2-125, 5-[4-(3-amino-3-methylpyrrolidin-1-yl)-5-(7-fluoro-4-methyl-1H-1,3-benzodiazol-2-yl)pyridin-3-yl]-2-fluorobenzamide]
> 1000	–	–	< 10	0.002	Cc1cccc(-c2cncc(-c3nc4c(C)cccc4[nH]3)c2N2CCC(N)CC2)c1
< 10	++ (++=100 to 499)	< 10	100 to 1000	–	CC1(N)CCN(c2c(-c3ccc4c(c3)OCC4)cncc2-c2nc3cccc(F)c3[nH]2)C1 (stereo not drawn) [Compound 2-22, 1-[3-(2,3-dihydro-1-benzofuran-6-yl)-5-(4-fluoro-1H-1,3-benzodiazol-2-yl)pyridin-4-yl]-3-methylpyrrolidin-3-amine]
< 10	++ (++=100 to 499)	< 10	100 to 1000	–	N#Cc1cc(F)cc(-c2cncc(-c3nc4ccccc4[nH]3)c2N2CC[C@H](N)C2)c1 [Compound 2-109, 3-{4-[(3S)-3-aminopyrrolidin-1-yl]-5-(1H-1,3-benzodiazol-2-yl)pyridin-3-yl}-5-fluorobenzonitrile]
10 to 100	++ (++=100 to 499)	10 to 100	> 1000	–	Cc1cc(F)cc(-c2cncc(-c3nc4cc(Cl)ccc4[nH]3)c2N2CC(CN)C2)c1 [Compound 1-4, 1-{1-[3-(5-chloro-1H-1,3-benzodiazol-2-yl)-5-(3-fluoro-5-methylphenyl)pyridin-4-yl]azetidin-3-yl}methanamine]
< 10	++ (++=100 to 499)	< 10	100 to 1000	–	Cc1cccc(-c2cncc(-c3nc4cccc(C)c4[nH]3)c2N2CC[C@H](N)C2)c1 [Compound 2-146, (3S)-1-[3-(4-methyl-1H-1,3-benzodiazol-2-yl)-5-(3-methylphenyl)pyridin-4-yl]pyrrolidin-3-amine]
